Where two headings read alike, the source gives them in different places.
Key:
Format in all cases: in vivo
[1] = system: bermudagrass (Cynodon dactylon); assay: Test B pre-/postemergence plant response; settings: for pest or weed control at 125 g/ha: 125 g ai/ha
Outline: (§1)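 Plants treated either at seeding (loam/sand soil) or postemergence at 2 to 18 cm height, using a surfactant-containing non-phytotoxic solvent formulation. Evaluation was visual after 13 to 15 days, 0 to 100 scale relative to controls.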

[2] = system: giant foxtail (Setaria faberii); assay: Test B pre-/postemergence plant response; settings: for pest or weed control at 31 g/ha: 31 g ai/ha; for pest or weed control at 125 g/ha: 125 g ai/ha
Outline: as §1

corn (Zea mays) = assay: Test B pre-/postemergence plant response; settings: for Corn plant response rating (crop injury, 0 = no effect, 100 = complete kill) at 31 g/ha: 31 g ai/ha; for Corn plant response rating (crop injury, 0 = no effect, 100 = complete kill) at 125 g/ha: 125 g ai/ha
Outline: as §1

[3] = system: ragweed (common ragweed, Ambrosia elatior); assay: Test B pre-/postemergence plant response; settings: for pest or weed control at 31 g/ha: 31 g ai/ha; for pest or weed control at 125 g/ha: 125 g ai/ha
Outline: as §1

[4] = system: johnsongrass (Sorghum halepense); assay: Test B pre-/postemergence plant response; settings: for pest or weed control at 31 g/ha: 31 g ai/ha; for pest or weed control at 125 g/ha: 125 g ai/ha
Outline: as §1

[5] = system: umbrella sedge (Cyperus difformis); assay: Test B flooded paddy test
Outline: (§2)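 Flooded-pot test: water raised to 3 cm above soil when treating, compound put in the water, level unchanged thereafter. Plants were at 2 leaves. Readout after 13 to 15 days, visual, relative to controls; 0 signifies no effect and 100 complete control.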

rice (Oryza sativa) = assay: Test B flooded paddy test
Outline: as §2

[6] = system: barnyardgrass (Echinochloa crus-galli); assay: Test B flooded paddy test
Outline: as §2

[7] = system: ducksalad (Heteranthera limosa); assay: Test B flooded paddy test
Outline: as §2

[8] = 62 g ai/ha, postemergence, 0 is no effect, 100 is complete control, 13 to 15 days
[9] = Preemergence, 250 g ai/ha, 0 to 100 scale
[10] = Flood, 31 g ai/ha, scale 0 to 100 (0 no effect, 100 complete control)

COCCCn1c(-c2ccccc2)ncc(C(=O)C2=C(O)CCCC2=O)c1=O [Compound 81, 5-[(2-hydroxy-6-oxo-cyclohexen-1-yl)carbonyl]-3-(3-methoxypropyl)-2-phenyl-4(3H)-pyrimidinone]
pest or weed control at 125 g/ha ([1]; Cynodon dactylon, post-emergence, Postemergence, visual rating after 13 to 15 days, scale 0 (no effect) to 100 (complete control)): 95% | pest or weed control at 250 g/ha ([1]; Cynodon dactylon, post-emergence, Postemergence, 250 g ai/ha, scale 0 to 100 (0 no effect, 100 complete control), read-out: Plant response rating, Bermudagrass): 95% | pest or weed control at 31 g/ha ([1]; Cynodon dactylon, pre-emergence, Preemergence, 31 g ai/ha, scale 0 to 100 (0 no effect, 100 complete control), read-out: Plant response rating, Bermudagrass): 100% | pest or weed control at 62 g/ha ([1]; Cynodon dactylon, pre-emergence, Preemergence, 62 g ai/ha, scale 0 to 100, 0 no effect, 100 complete control, read-out: Plant response rating, Bermudagrass): 100% | pest or weed control at 125 g/ha ([1]; Cynodon dactylon, pre-emergence, Preemergence, scale 0 to 100, 0 no effect, 100 complete control, read-out: Plant response rating, Bermudagrass): 100% | Bermudagrass plant response rating ([1]; Preemergence, 250 g ai/ha, 0 to 100 scale, 0 no effect, 100 complete control): 100 | Foxtail, Giant plant response rating (0 to 100 scale) [2, 8]: 85 | Foxtail, Giant plant response rating [2, 9]: 98 | pest or weed control at 31 g/ha ([2]; Setaria faberi, post-emergence, postemergence, scale 0 to 100, 0 is no effect, 100 is complete control, read-out: Plant response rating, Foxtail, Giant): 75% | pest or weed control at 125 g/ha ([2]; Setaria faberi, post-emergence, Postemergence, visual rating after 13 to 15 days, scale 0 (no effect) to 100 (complete control)): 95% | pest or weed control at 250 g/ha ([2]; Setaria faberi, post-emergence, Postemergence, 250 g ai/ha, scale 0 to 100 (0 no effect, 100 complete control), read-out: Plant response rating, Foxtail, Giant): 98% | pest or weed control at 31 g/ha ([2]; Setaria faberi, pre-emergence, Preemergence, scale 0 to 100 (0 no effect, 100 complete control), read-out: Plant response rating, Foxtail, Giant): 60% | pest or weed control at 62 g/ha ([2]; Setaria faberi, pre-emergence, Preemergence, 62 g ai/ha, scale 0 to 100, 0 no effect, 100 complete control, read-out: Plant response rating, Foxtail, Giant): 75% | pest or weed control at 125 g/ha ([2]; Setaria faberi, pre-emergence, Preemergence, scale 0 to 100, 0 no effect, 100 complete control, read-out: Plant response rating, Foxtail, Giant): 85% | Corn plant response rating (0 to 100 scale) (corn (Zea mays); [8]): 10 | Corn plant response rating (corn (Zea mays); [9]): 55 | Corn plant response rating (crop injury, 0 = no effect, 100 = complete kill) at 31 g/ha (corn (Zea mays); Zea mays, post-emergence, postemergence, scale 0 to 100, 0 is no effect, 100 is complete control): 5% | Corn plant response rating (crop injury, 0 = no effect, 100 = complete kill) at 125 g/ha (corn (Zea mays); Zea mays, post-emergence, Postemergence, visual rating after 13 to 15 days, scale 0 (no effect) to 100 (complete control)): 15% | Corn plant response rating (crop injury, 0 = no effect, 100 = complete kill) at 250 g/ha (corn (Zea mays); Zea mays, post-emergence, Postemergence, 250 g ai/ha, scale 0 to 100 (0 no effect, 100 complete control)): 65% | Corn plant response rating (crop injury, 0 = no effect, 100 = complete kill) at 31 g/ha (corn (Zea mays); Zea mays, pre-emergence, Preemergence, scale 0 to 100 (0 no effect, 100 complete control)): 40% | Corn plant response rating (crop injury, 0 = no effect, 100 = complete kill) at 62 g/ha (corn (Zea mays); Zea mays, pre-emergence, Preemergence, 62 g ai/ha, scale 0 to 100, 0 no effect, 100 complete control): 40% | Corn plant response rating (crop injury, 0 = no effect, 100 = complete kill) at 125 g/ha (corn (Zea mays); Zea mays, pre-emergence, Preemergence, scale 0 to 100, 0 no effect, 100 complete control): 50% | Ragweed plant response rating (0 to 100 scale) [3, 8]: 80 | pest or weed control at 31 g/ha ([3]; Ambrosia artemisiifolia, post-emergence, 360 h, postemergence, scale 0 to 100, 0 is no effect, 100 is complete control, read-out: Plant response rating, Ragweed): 75% | pest or weed control at 125 g/ha ([3]; Ambrosia artemisiifolia, post-emergence, 360 h, Postemergence, visual rating after 13 to 15 days, scale 0 (no effect) to 100 (complete control)): 98% | pest or weed control at 250 g/ha ([3]; Ambrosia artemisiifolia, post-emergence, 360 h, Postemergence, 250 g ai/ha, scale 0 to 100 (0 no effect, 100 complete control), read-out: Plant response rating, Ragweed): 100% | pest or weed control at 31 g/ha ([3]; Ambrosia artemisiifolia, pre-emergence, 360 h, Preemergence, scale 0 to 100 (0 no effect, 100 complete control), read-out: Plant response rating, Ragweed): 60% | pest or weed control at 62 g/ha ([3]; Ambrosia artemisiifolia, pre-emergence, 360 h, Preemergence, 62 g ai/ha, scale 0 to 100 (0 no effect, 100 complete control), read-out: Plant response rating, Ragweed): 85% | pest or weed control at 125 g/ha ([3]; Ambrosia artemisiifolia, pre-emergence, 360 h, Preemergence, scale 0 to 100, 0 no effect, 100 complete control, read-out: Plant response rating, Ragweed): 90% | Ragweed plant response rating [3, 9]: 90 | Johnsongrass plant response rating (0 to 100 scale) [4, 8]: 10 | Johnsongrass plant response rating [4, 9]: 90 | pest or weed control at 31 g/ha ([4]; Sorghum halepense, post-emergence, postemergence, scale 0 to 100, 0 is no effect, 100 is complete control, read-out: Plant response rating, Johnsongrass): 5% | pest or weed control at 125 g/ha ([4]; Sorghum halepense, post-emergence, Postemergence, visual rating after 13 to 15 days, scale 0 (no effect) to 100 (complete control)): 75% | pest or weed control at 250 g/ha ([4]; Sorghum halepense, post-emergence, Postemergence, 250 g ai/ha, scale 0 to 100 (0 no effect, 100 complete control), read-out: Plant response rating, Johnsongrass): 100% | pest or weed control at 31 g/ha ([4]; Sorghum halepense, pre-emergence, Preemergence, scale 0 to 100 (0 no effect, 100 complete control), read-out: Plant response rating, Johnsongrass): 10% | pest or weed control at 62 g/ha ([4]; Sorghum halepense, pre-emergence, Preemergence, 62 g ai/ha, scale 0 to 100, 0 no effect, 100 complete control, read-out: Plant response rating, Johnsongrass): 80% | pest or weed control at 125 g/ha ([4]; Sorghum halepense, pre-emergence, Preemergence, scale 0 to 100, 0 no effect, 100 complete control, read-out: Plant response rating, Johnsongrass): 90% | pest or weed control at 250 g/ha ([5]; Cyperus difformis, 360 h, 250 g ai/ha, flooded paddy test, visual rating on 0 to 100 scale (0 no effect, 100 complete control) after 13 to 15 days, read-out: Plant response rating, Flood, Sedge, Umbrella): 40% | pest or weed control at 62 g/ha ([5]; Cyperus difformis, 360 h, Flood (flooded paddy test), 62 g ai/ha, scale of 0 to 100 where 0 is no effect and 100 is complete control, 13 to 15 days, read-out: Plant response rating, Sedge, Umbrella): 0% | pest or weed control at 125 g/ha ([5]; Cyperus difformis, 360 h, Flood (flooded paddy test), 125 g ai/ha, scale 0 to 100, 0 is no effect, 100 is complete control, 13 to 15 days, read-out: Plant response rating, Sedge, Umbrella): 30% | Sedge, Umbrella plant response rating [5, 10]: 0 | Rice plant response rating (rice (Oryza sativa); [10]): 0 | plant injury at 250 g/ha (rice (Oryza sativa); Oryza sativa, 250 g ai/ha, flooded paddy test, visual rating on 0 to 100 scale (0 no effect, 100 complete control) after 13 to 15 days, read-out: Plant response rating, Flood, Rice): 15% | plant injury at 62 g/ha (rice (Oryza sativa); Oryza sativa, Flood (flooded paddy test), 62 g ai/ha, scale of 0 to 100 where 0 is no effect and 100 is complete control, 13 to 15 days, read-out: Plant response rating, Rice): 0% | plant injury at 125 g/ha (rice (Oryza sativa); Oryza sativa, Flood (flooded paddy test), 125 g ai/ha, scale 0 to 100, 0 is no effect, 100 is complete control, 13 to 15 days, read-out: Plant response rating, Rice): 15% | pest or weed control at 250 g/ha ([6]; Echinochloa crus-galli, 360 h, 250 g ai/ha, flooded paddy test, visual rating on 0 to 100 scale (0 no effect, 100 complete control) after 13 to 15 days, read-out: Plant response rating, Flood, Barnyardgrass): 60% | pest or weed control at 62 g/ha ([6]; Echinochloa crus-galli, 360 h, Flood (flooded paddy test), 62 g ai/ha, scale of 0 to 100 where 0 is no effect and 100 is complete control, 13 to 15 days, read-out: Plant response rating, Barnyardgrass): 0% | pest or weed control at 125 g/ha ([6]; Echinochloa crus-galli, 360 h, Flood (flooded paddy test), 125 g ai/ha, scale 0 to 100, 0 is no effect, 100 is complete control, 13 to 15 days, read-out: Plant response rating, Barnyardgrass): 40% | Barnyardgrass plant response rating [6, 10]: 0 | Ducksalad plant response rating [7, 10]: 0 | pest or weed control at 250 g/ha ([7]; Heteranthera limosa, 360 h, 250 g ai/ha, flooded paddy test, visual rating on 0 to 100 scale (0 no effect, 100 complete control) after 13 to 15 days, read-out: Plant response rating, Flood, Ducksalad): 40% | pest or weed control at 62 g/ha ([7]; Heteranthera limosa, 360 h, Flood (flooded paddy test), 62 g ai/ha, scale of 0 to 100 where 0 is no effect and 100 is complete control, 13 to 15 days, read-out: Plant response rating, Ducksalad): 0% | pest or weed control at 125 g/ha ([7]; Heteranthera limosa, 360 h, Flood (flooded paddy test), 125 g ai/ha, scale 0 to 100, 0 is no effect, 100 is complete control, 13 to 15 days, read-out: Plant response rating, Ducksalad): 15%
